Key:
mgNIS [1] = test: Immunoblot analysis of mgNIS in MG from ovariectomized nubile mice treated with hormones; assay type: in vivo; details: for mgNIS expression in mammary tissue (immunoblot): three consecutive days
Protocol: FIG. 4. Immunoblot analysis of MG from ovariectomized nubile mice treated with various hormones. Membrane fractions isolated from MG of nubile mice were either sham treated with PBS (lane 1) or treated for three consecutive days with: progesterone (1 I.U.) (lane 2); 17-β-estradiol (1 μg) (lane 3); 17-β-estradiol and progesterone (1 I.U.) (lane 4); oxytocin (1 I.U.) (lane 5); oxytocin and 17-β-estradiol (lane 6); prolactin (10 I.U.) (lane 7); oxytocin, prolactin, and 17-β-estradiol (lane 8); and progesterone together with oxytocin, prolactin, and 17-β-estradiol (lane 9). Isolated membrane fractions were electrophoresed and electrotransferred onto nitrocellulose, followed by immunoblot analysis with anti-NIS Ab.
Oxytocin (α-hypophamine), prolactin, progesterone (4-pregnene-3,20-dione), and 17-β-estradiol (1,3,5[10]-estratriene-3,17-β-diol) were purchased from Sigma, St. Louis, Mo. Either ovariectomized or surgically unmodified 8- to 10-week-old CD1 (ICR) IBR mice (Charles River Laboratories, Wilmington, Mass.) were treated once a day with subcutaneous injections of 1 I.U. of oxytocin, 10 I.U. of prolactin, 1 μg 17-β-estradiol, or 1 I.U. of progesterone (intraperitoneally) for three consecutive days, either individually or in the indicated combination. A final injection was done on the fourth day; two hours later, mammary glands were removed for analysis. Oxytocin and prolactin were dissolved in sterile distilled water, 17-β-estradiol was dissolved in 90% alcohol, and progesterone was dissolved in sesame oil (Sigma, St. Louis, Mo.). Except for progesterone, indicated doses of hormones were injected after being taken in 200 μl sterile PBS solution. Progesterone (final concentration 10 mg/ml) was injected into 100 μl of sesame oil. Control animals which were sham treated with sesame oil were systematically included in experiments when progesterone was administered. At least three identically-treated animals were analyzed in each case.
Sprague-Dawley female rats (over 8 weeks old) at different physiological stages, and hormonally-treated CD1 (ICR) BR female mice, were sacrificed in a CO2 chamber before excision of thoracic, abdominal, and inguinal MG. Organs, which were removed from mice or rats were blended with a polytron homogenizer (Brinkmann Instruments, Westbury, N.Y.) for 1 min, and homogenized with a stirrer-type glass-teflon homogenizer (Caframo-Wiarton, Ontario, Canada) (Levy et al., 1997). Membrane fractions were prepared in the presence of protease inhibitors, as described above (Kaminsky et al., 1994). SDS-PAGE electrophoresis and electroblotting to nitrocellulose were performed as described in Levy et al. (1997). All samples were diluted 1:2 with loading buffer (Harlow and Lane, 1988) and heated at 37° C. for 30 min prior to electrophoresis. […]

mgNIS [2] = test: mgNIS expression (immunoblot) and 125I- transport in MG of hormonally treated intact nubile mice; assay type: in vivo; details: intact nubile animals
Protocol: (§1) FIG. 3. In vivo effect of oxytocin on functional expression of mgNIS in nubile mice. (A) Radioiodide transport in MG of oxytocin-treated nubile mice. Seven- to eight-week-old female mice were treated subcutaneously with phosphate buffered saline solution (PBS), 10 I.U. of prolactin (PRL), 1 I.U. of oxytocin (OXY), or prolactin and oxytocin (PRL+OXY) for three days. Then, 1 μCi of ^125I^− was injected intraperitoneally. […] (B) Immunoblot analysis of MG from hormonally-treated mice. […] Isolated membrane fractions were electrophoresed, electrotransferred onto nitrocellulose, and analyzed by immunoblots using anti-NIS Ab. […] Perchlorate-inhibited accumulation of ^99mTcO4^− was detected in stomach and MG of OXY-treated animals. (D) Quantification of ^99mTcO4^− accumulation in various organs from OXY- or PBS-treated mice. Tracer accumulation was monitored using image analysis software (ImageQuant, Macintosh). […] Counts were divided by the weight of the organs (cpm/mg tissue), and standardized by dividing them by cpm detected in the blood (cpm/mg blood) of each animal. ^99mTcO4^− accumulation in the organs from: PBS-treated animals (open bars); OXY-treated animals (dotted bars); and OXY-treated animals after ^99mTcO4^−+perchlorate injection (dark bars). […]

mgNIS [3] = target: T1, mgNIS (Mus musculus, UniProt Q99PN0); test: Ex vivo scintigraphic imaging of 99mTcO4- accumulation in organs of oxytocin-treated nubile mice; set-up: Membrane fractions isolated from MG of nubile female mice; from tissue; host or cells: CD1 (ICR) mice (intact, ovariectomized, gestating) and MMTV-ras / MMTV-neu transgenic mice: mammary gland, mammary adenocarcinoma, stomach; details: organs removed 30 min after tracer
T1 sequence (Q99PN0 1-618): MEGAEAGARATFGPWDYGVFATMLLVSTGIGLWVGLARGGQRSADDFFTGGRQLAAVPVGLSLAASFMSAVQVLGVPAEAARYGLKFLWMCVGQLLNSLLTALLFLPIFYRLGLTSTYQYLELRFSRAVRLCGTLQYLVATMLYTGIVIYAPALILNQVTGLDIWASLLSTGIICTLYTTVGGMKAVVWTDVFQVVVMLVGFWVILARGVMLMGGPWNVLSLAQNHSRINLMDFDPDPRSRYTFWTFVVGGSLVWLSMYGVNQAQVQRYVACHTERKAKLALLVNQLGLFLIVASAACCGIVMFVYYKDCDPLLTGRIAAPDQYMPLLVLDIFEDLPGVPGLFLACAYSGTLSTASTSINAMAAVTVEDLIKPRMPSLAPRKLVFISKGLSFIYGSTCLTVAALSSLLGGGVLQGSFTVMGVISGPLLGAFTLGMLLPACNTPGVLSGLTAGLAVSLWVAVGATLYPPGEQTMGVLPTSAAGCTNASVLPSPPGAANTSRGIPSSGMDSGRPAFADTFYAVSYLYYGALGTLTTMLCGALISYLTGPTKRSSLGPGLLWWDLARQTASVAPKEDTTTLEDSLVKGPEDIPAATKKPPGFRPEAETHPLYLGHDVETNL
Protocol: as §1

C[C@]12CC[C@@H]3c4ccc(O)cc4CC[C@H]3[C@@H]1CC[C@@H]2O [17-β-estradiol, 1,3,5[10]-estratriene-3,17-β-diol] was tested. Which “mgNIS expression in mammary tissue (immunoblot)” value (mgNIS [1]) did it give?
Its value is “clearly discernible increase”.

CC[C@H](C)[C@@H]1NC(=O)[C@H](Cc2ccc(O)cc2)NC(=O)[C@@H](N)CSSC[C@@H](C(=O)N2CCC[C@H]2C(=O)N[C@@H](CC(C)C)C(=O)NCC(N)=O)NC(=O)[C@H](CC(N)=O)NC(=O)[C@H](CCC(N)=O)NC1=O [oxytocin, α-hypophamine] was tested. Which “mgNIS expression in MG (immunoblot), leading to 125I- transport” value (mgNIS [2]; 1 I.U. s.c. for three days) did it give?
The value was “induced mgNIS expression”.

What about the “mgNIS expression in mammary tissue (immunoblot)” value (mgNIS [1]) of the same molecule?
Its value is “did not cause an increase”.

What about the “perchlorate-inhibited 99mTcO4- accumulation in MGs versus sham-treated mice” value (mgNIS [3]) of the same molecule?
Its value is “significantly higher”.

What does the source list for CC(=O)[C@H]1CC[C@H]2[C@@H]3CCC4=CC(=O)CC[C@]4(C)[C@H]3CC[C@]12C [progesterone, 4-pregnene-3,20-dione]?
effect on 17-β-estradiol enhancement of mgNIS expression (mgNIS [1]): did not interfere; mgNIS expression when added to the 17-β-estradiol/oxytocin/prolactin combination (mgNIS [1]): significantly decreased

B1: prolactin: a glycoprotein released from the anterior pituitary (protein, UniProt P01236 29-227, looked up)
Prolactin: LPICPGGAARCQVTLRDLFDRAVVLSHYIHNLSSEMFSEFDKRYTHGRGFITKAINSCHTSSLATPEDKEQAQQMNQKDFLSLIVSILRSWNEPLYHLVTEVRGMQEAPEAILSKAVEIEEQTKRLLEGMELIVSQVHPETKENEIYPVWSGLPSLQMADEESRLSAYYNLLHCLRRDSHKIDNYLKLLKCRIIHNNNC
How did the “effect on upregulation of mgNIS by oxytocin” value (mgNIS [2]; 10 I.U. prolactin with 1 I.U. oxytocin) turn out when B1 was run?
The value was “antagonized”.

Source: patent publication US7303740B2, “Methods for the diagnosis and treatment of breast cancer” (Albert Einstein College of Medicine of Yeshiva University, priority 2000, dated 2007)
